Assay results: patent publication US20250340848A1, “METHODS FOR CHEMICAL REPROGRAMMING AND PLURIPOTENT STEM CELLS” (Peking University, priority 2022, published 2025)

Legend:
[1] = test system: cellular retinoic acid binding protein (CRABP); details: cited from earlier work
hADSC = assay: Chemical reprogramming of hADSC per Example 6A, OCT4-positive hCiPSC clones; assay type: cell-based, human
Protocol: In short, hADSC or hASF are seeded at 1×10^4 cells/well in a 12-well plate, or at 0.5-0.6×10^4 cells/well in a 24-well plate, and cultured overnight. The next day, the medium is replaced with Stage I induction medium (Knockout DMEM supplemented with 2% B27 supplement, 1% KSR, 1% GlutaMAX, 1% NEAA, 1% penicillin-streptomycin, […] Vc2p, 5 mM LiCl, 1 mM NAM, 20 ng/mL BMP4, 5 μM CHIR999021, 10 μM 616452, 2 μM TTNPB, 0.5 μM SAG, 2 μM EPZ5676, 0.05 μM DZNep, 1 μM ruxolitinib, 0.5 μM VTP50469, 1 μM HY-10249A (CAS No. 842148-40-7), 0.2 μM JNKIN8, and 0.2 μM SETD2-IN-1), and cultured under hypoxic conditions (5% 02) until a monolayer of epithelial-like cells appears and reaches approximately 100% confluence. hADSC cells typically require 8-10 days, and hASFs typically require 9-16 days. […]
OCT4 immunofluorescent staining is performed on the obtained hCiPSC clones, with OCT4 positivity serving as an indicator of hCiPSC clones. The reprogramming efficiency of the method is calculated by dividing the number of OCT4-positive clones by the number of initial hADSC or hASFs plated. […]

CC(C)(C)c1cc(C(=O)/C=C/c2ccc(C(=O)O)cc2)cc(C(C)(C)C)c1 [Ch 55, 4-[(1E)-3-[3,5-bis(1,1-Dimethylethyl)phenyl]-3-oxo-1-propenyl]benzoic acid]
affinity for cellular retinoic acid binding protein (CRABP) [1]: low affinity

CCc1c(C#N)c(SC(C(N)=O)c2ccccc2)nc(N2CCC(N)CC2)c1C#N (stereo not drawn) [GSK3685032]
transformation into pluripotent stem cells vs control (hADSC; 6+4+8, added to Stage II induction medium (RA 5 μM, GSK3685032 0.02 μM), FIG. 29): significantly improve the transformation of LIN28A-positive monolayer epithelial-like cells into pluripotent stem cells

O=C(NNS(=O)(=O)c1ccccc1F)c1cc(F)cc(-c2ccccn2)c1 [WM1119]
transformation efficiency (hADSC; 8+4+8 culture method, HATi 0.5 μM in stage I induction medium, FIG. 27A): about 2.4%
